# Assay results published in patent US20260234107A1, “TRYPTAMINES AND METHODS OF TREATING MOOD DISORDERS” (priority 2022, published 2026).
# Read-outs that look alike come from different tables or passages of the source.
# Experiments:
# [1] = tested on: monoamine oxidase A and B (MAO-A and MAO-B); assay: Stability in the presence of monoamine oxidases (human liver mitochondria preparation); parameters: half-life / microsomal CLint: dose or concentration left out as unconfirmed; conditions: for Remaining (t = 60 min) / half-life / microsomal CLint: human liver mitochondria; for half-life / microsomal CLint: human, pH 7.4; for stability in the presence of MAO (in words): human liver mitochondria preparation
# Procedure: Liver Mitochondria Incubations. Human liver mitochondria (Xenotech H0610.M) were used.
# 5-HT2B = biological target: T1, 5-HT2B (Homo sapiens, UniProt P41595); assay: FLIPR Ca2+ flux agonist assay at 5-HT2B; assay type: cell-based; conditions: for 5-HT2B % Act @ Max Dose: Ca2+ flux, HEK293, max dose
# T1 construct: host or cells: HEK293
# Procedure: (§1) A solution of 250 mM probenecid in 1 mL FLIPR assay buffer was prepared fresh. This was combined with a fluorescent dye (Fluo-4 Direct™) to make a final assay concentration of 2.5 mM. […] The fluorescent dye was then added to the assay plate along with assay buffer to a final volume of 40 μL. The cell plate was incubated for 50 min at 37° C. and 5% CO2 and placed into the FLIPR Tetra along with the compound plate. 10 μL of references and compounds were then transferred from the compound plate into the cell plate and the fluorescent signal was read.
# 5-HT1A = biological target: T2, 5-HT1A (Homo sapiens, UniProt P08908); assay: FLIPR Ca2+ flux agonist assay at 5-HT1A; assay type: cell-based; conditions: for 5-HT1A % Act @ Max Dose: Ca2+ flux, CHO cells
# T2 construct: host or cells: CHO cells
# T2 sequence (P08908 1-422): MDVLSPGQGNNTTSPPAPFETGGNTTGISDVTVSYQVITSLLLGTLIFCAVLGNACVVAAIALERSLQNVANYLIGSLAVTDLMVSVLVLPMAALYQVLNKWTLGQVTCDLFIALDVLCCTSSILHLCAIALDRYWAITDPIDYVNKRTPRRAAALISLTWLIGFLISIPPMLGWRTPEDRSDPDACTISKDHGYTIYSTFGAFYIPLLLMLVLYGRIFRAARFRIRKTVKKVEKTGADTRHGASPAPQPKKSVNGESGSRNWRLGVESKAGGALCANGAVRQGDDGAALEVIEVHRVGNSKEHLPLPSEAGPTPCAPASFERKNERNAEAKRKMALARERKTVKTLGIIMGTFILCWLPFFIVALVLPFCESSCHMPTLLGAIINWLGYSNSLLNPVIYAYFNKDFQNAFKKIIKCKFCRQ
# Procedure: as §1
# [2] = Stability in mouse brain homogenate; assay type: in vitro ADME, male CD-1 mice; conditions: mouse brain homogenate, 1 μM, 37° C.; for half-life at 1 µM: male, CD-1
# Procedure: Disclosed compounds were tested for stability in mouse brain homogenate (Table 7). There was widely variable stability among the test compounds under the conditions of the experiment.
# (§2) Mouse Brain Homogenate Stability. Frozen mouse brain homogenate (pooled from male CD-1 mice, BioreclamationIVT, MSE00BRAINMZA) was thawed in a water bath at 37° C. immediately prior to use. Positive controls and test compounds (final concentration in incubation medium=1 μM for test compounds and 2 μM for controls, all with 2% DMSO) were incubated in duplicate for each time point (0, 10, 30, 60, and 120 min) in the mouse brain homogenate at a total reaction volume of 100 μL at 37° C. At the end of each incubation period, reactions were immediately quenched with 400 μL of acetonitrile containing internal standard (200 ng/mL tolbutamine and 200 ng/mL labetalol) and mixed thoroughly. Plates were then sealed, shaken for 20 min, and centrifuged at 4,000 rpm and 4° C. for 20 min. Aliquots of 50 μL of each supernatant were diluted into 100 μL of water and the mixtures were then shaken again for 10 min.
# [3] = Stability in rat brain homogenate; assay type: in vitro ADME, male Sprague Dawley rats; conditions: rat brain homogenate, 1 μM, 37° C.; for half-life at 1 µM: male, Sprague Dawley
# Procedure: Disclosed compounds were tested for stability in rat brain homogenate (Table 8). There was widely variable stability among the test compounds under the conditions of the experiment.
# as §2, with “Rat” for “Mouse”, “rat” for “mouse”, “Sprague Dawley rats,” for “CD-1 mice,”, “RAT00BRAINMZA)” for “MSE00BRAINMZA)”
# 5-HT2A = 5-HT2A (Homo sapiens, UniProt P28223); assay: FLIPR Ca2+ flux agonist assay at 5-HT2A; assay type: cell-based; parameters: host or cells: HEK293; conditions: for 5-HT2A % Act @ Max Dose: HEK293, max dose
# Procedure: as §1
# [4] = Metabolic stability in human liver microsomes (HLM); parameters: microsomal CLint / half-life: dose or concentration left out as unconfirmed; conditions: both, human, pooled human liver microsomes, pH 7.4
# [5] = Ca2+ flux, HEK293, read-out: 5-HT2A EC50
# Sequence of 5-HT2A (P28223 whole entry): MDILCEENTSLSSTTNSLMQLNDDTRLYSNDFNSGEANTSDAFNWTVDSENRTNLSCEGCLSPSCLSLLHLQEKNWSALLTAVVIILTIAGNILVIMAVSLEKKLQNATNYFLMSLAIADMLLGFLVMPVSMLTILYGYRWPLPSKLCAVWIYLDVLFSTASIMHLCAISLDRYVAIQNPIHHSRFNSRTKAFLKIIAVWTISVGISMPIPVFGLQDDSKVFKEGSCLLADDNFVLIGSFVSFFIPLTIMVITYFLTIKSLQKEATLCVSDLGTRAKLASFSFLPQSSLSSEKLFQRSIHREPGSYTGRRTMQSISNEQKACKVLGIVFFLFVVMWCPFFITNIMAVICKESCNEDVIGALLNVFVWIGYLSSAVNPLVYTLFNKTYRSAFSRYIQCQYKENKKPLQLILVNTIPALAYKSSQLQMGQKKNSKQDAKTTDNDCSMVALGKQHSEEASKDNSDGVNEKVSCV
# T1 sequence (P41595 whole entry, species assumed): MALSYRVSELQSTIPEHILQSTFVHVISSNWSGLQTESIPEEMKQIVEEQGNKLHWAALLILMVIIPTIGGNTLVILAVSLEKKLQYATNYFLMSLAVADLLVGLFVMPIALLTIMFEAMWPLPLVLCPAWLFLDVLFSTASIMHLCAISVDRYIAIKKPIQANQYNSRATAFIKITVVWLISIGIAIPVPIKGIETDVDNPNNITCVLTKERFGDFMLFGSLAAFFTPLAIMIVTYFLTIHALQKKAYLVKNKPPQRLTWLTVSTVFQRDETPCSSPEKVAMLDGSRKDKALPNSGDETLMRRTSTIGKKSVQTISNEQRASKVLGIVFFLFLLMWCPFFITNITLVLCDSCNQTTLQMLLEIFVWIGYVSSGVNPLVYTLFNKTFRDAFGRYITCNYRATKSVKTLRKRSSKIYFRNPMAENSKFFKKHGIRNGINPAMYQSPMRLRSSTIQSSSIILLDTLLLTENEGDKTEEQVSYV
SMILES,Remaining (t = 60 min) [1] [%],half-life [1] [min],microsomal CLint [1] [µL/min/mg],5-HT2B % Act @ Max Dose (5-HT2B) [%],5-HT1A % Act @ Max Dose (5-HT1A) [%],half-life at 1 µM [2] [min],% Compound Remaining (after 120 min) [2] [%],half-life at 1 µM [3] [min],% Compound Remaining (after 120 min) [3] [%],EC50 (5-HT2A) [nM],5-HT2A % Act @ Max Dose (5-HT2A; Ca2+ flux) [%],half-life [4] [min],microsomal CLint [4] [µL/min/mg],stability in the presence of MAO (in words) [1],EC50 (5-HT2B) [nM],EC50 (5-HT1A) [nM],EC50 (5-HT2A; [5]) [nM]
"CCNCCc1c[nH]c2cc(F)cc(O)c12 [Compound 29, 3-(2-(ethylamino)ethyl)-6-fluoro-1H-indol-4-ol]",99.1,> 145,< 15.9,12.18,16.22,59.9,29.9,113,51.9,17.4,80.80,> 145,< 9.6,–,–,–,–
"CCNCCc1c[nH]c2ccc(Cl)c(O)c12 [Compound 38, 5-chloro-3-(2-(ethylamino)ethyl)-1H-indol-4-ol]",22.6,26.1,88.6,43.30,77.96,17.5,0.9,9.2,0,10.5,103.70,13.2,105,intermediate stability,42.4,1840,–
"NCCc1c[nH]c2c(F)ccc(O)c12 [Compound 32, 3-(2-aminoethyl)-7-fluoro-1H-indol-4-ol]",24.0,28.4,81.4,66.55,38.64,29,4.8,9.5,0,–,–,16,86.5,intermediate stability,30.3,> 100000,7.3
"CCCNCCc1c[nH]c2ccc(F)c(O)c12 [Compound 36, 5-fluoro-3-(2-(propylamino)ethyl)-1H-indol-4-ol]",0.9,8.5,272,44.90,15.31,108,46.2,31,7.1,12.1,71.78,49.9,27.8,–,26.2,> 100000,–
"NCCc1c[nH]c2cccc(O)c12 [Compound 1, 3-(2-aminoethyl)-1H-indol-4-ol]",51.1,70.5,32.8,83.98,49.9,12.6,0.0,10,0.0,33.4,99.2,34.3,40.4,–,151,92600,–
"C#CCNCCc1c[nH]c2cccc(O)c12 [Compound 24, 3-(2-(prop-2-yn-1-ylamino)ethyl)-1H-indol-4-ol]",87.2,> 145,< 15.9,48.26,−3.14,97.3,40.5,92.4,41.9,20.1,96.07,92.4,15,–,88.3,> 100000,–
"NCCc1c[nH]c2ccc(F)c(O)c12 [Compound 30, 3-(2-aminoethyl)-5-fluoro-1H-indol-4-ol]",0.0,6.5,356,95.46,73.4,6.4,0,3.9,0.1,–,–,9.3,149,–,4.62,5220,4.06
"CNCCc1c[nH]c2c(F)ccc(O)c12 [Compound 34, 7-fluoro-3-(2-(methylamino)ethyl)-1H-indol-4-ol]",6.4,15,154,8.09,36.72,21.7,1.6,3.6,0,16.2,77.43,6.6,209,–,> 10000,> 100000,–
"CNCCc1c[nH]c2cc(C)cc(O)c12 [Compound 39, 6-methyl-3-(2-(methylamino)ethyl)-1H-indol-4-ol]",13.5,17.8,130,10.04,4.4,15.5,0.4,6.3,0.1,78.4,76.43,9.9,140,–,> 10000,> 100000,–
"CCNCCc1c[nH]c2ccc(C)c(O)c12 [Compound 37, 3-(2-(ethylamino)ethyl)-5-methyl-1H-indol-4-ol]",65.1,88.7,26.1,16.28,64.6,69.9,31.3,14.1,0.2,56.5,91.0,86.8,16,–,274,6950,–
